Assay results as given in patent US10844032B2, “Substituted benzofuran, benzothiophene and indole Mcl-1 inhibitors” (Vanderbilt University, priority 2012, dated 2020).
pKi: −log10 of the molar value.

The compounds below were run against recombinant Mcl-1 (residues 172-327) (Homo sapiens (Human), UniProt Q07820) (assay: Bak peptide fluorescence polarization anisotropy competition assay, Mcl-1). Conditions: Table 2, Ki range; FITC-Bak peptide 10 nM, Mcl-1 14 nM; read-out: Ki for inhibition of Mcl-1.
recombinant Mcl-1 (residues 172-327), sequence (Q07820 172-327): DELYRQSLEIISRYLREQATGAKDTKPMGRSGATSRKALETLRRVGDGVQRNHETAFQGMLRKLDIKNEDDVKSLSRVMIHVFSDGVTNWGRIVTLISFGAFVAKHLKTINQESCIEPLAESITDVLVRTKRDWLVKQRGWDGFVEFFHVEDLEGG
Assay type: binding

`Cc1cc(OCCCc2c(C(=O)NS(=O)(=O)CCNC(=O)CCc3ccccc3)[nH]c3cc(Cl)ccc23)cc(C)c1Cl` [Example 230, 6-chloro-3-(3-(4-chloro-3,5-dimethylphenoxy)propyl)-N-((2-(3-phenylpropanamido)ethyl)sulfonyl)-1H-indole-2-carboxamide] and `Cc1cc(OCCCc2c(C(=O)NS(=O)(=O)CCNC(=O)c3cccn3C)[nH]c3ccccc23)cc(C)c1Cl` [Example 170, 3-(3-(4-chloro-3,5-dimethylphenoxy)propyl)-N-((2-(1-methyl-1H-pyrrole-2-carboxamido)ethyl)sulfonyl)-1H-indole-2-carboxamide] cannot be ordered by pKi: at least 7.00 for the first, at least 7.00 for the second.

Same assay, conditions: read-out: Ki for inhibition of Mcl-1

`CS(=O)(=O)NC(=O)c1[nH]c2cc(Cl)ccc2c1CCCOc1cccc2c1CCC2` [Example 106, 6-chloro-3-(3-((2,3-dihydro-1H-inden-4-yl)oxy)propyl)-N-(methylsulfonyl)-1H-indole-2-carboxamide] and `CS(=O)(=O)NC(=O)c1[nH]c2ccccc2c1CCCOc1cccc2c1CCC2` [Example 74, 3-(3-((2,3-dihydro-1H-inden-4-yl)oxy)propyl)-N-(methylsulfonyl)-1H-indole-2-carboxamide] fall in the same range of pKi: 5.00 to 6.00 for the first, 5.00 to 6.00 for the second.

First: Cc1cc(OCCCc2c(C(=O)NS(C)(=O)=O)n(C)c3cc(Cl)ccc23)cc(C)c1Cl [Example 268, 6-chloro-3-(3-(4-chloro-3,5-dimethylphenoxy)propyl)-1-methyl-N-(methylsulfonyl)-1H-indole-2-carboxamide]
Second: Cc1cc(OCCCc2c(C(=O)NS(C)(=O)=O)[nH]c3c(C)c(Br)ccc23)cc(C)c1Cl [Example 120, 6-bromo-3-(3-(4-chloro-3,5-dimethylphenoxy)propyl)-7-methyl-N-(methylsulfonyl)-1H-indole-2-carboxamide]
The pKi of the first is higher: 6.00 to 6.30 for the first, 5.00 to 6.00 for the second. The first binds more tightly here.

`COC(=O)c1ccc(S(=O)(=O)NC(=O)c2[nH]c3cc(Cl)ccc3c2CCCOc2cc(C)c(Cl)c(C)c2)o1` [Example 259] and `COc1ccc(Cn2cccc2C(=O)NCCS(=O)(=O)NC(=O)c2[nH]c3cc(Cl)ccc3c2CCCOc2cc(C)c(Cl)c(C)c2)cc1` [Example 249, 6-chloro-3-(3-(4-chloro-3,5-dimethylphenoxy)propyl)-N-((2-(1-(4-methoxybenzyl)-1H-pyrrole-2-carboxamido)ethyl)sulfonyl)-1H-indole-2-carboxamide] fall in the same range of pKi: 6.52 to 7.00 for the first, 6.52 to 7.00 for the second.

First: Cc1ccccc1Cn1cccc1C(=O)NCCS(=O)(=O)NC(=O)c1[nH]c2cc(Cl)ccc2c1CCCOc1cc(C)c(Cl)c(C)c1 [Example 244, 6-chloro-3-(3-(4-chloro-3,5-dimethylphenoxy)propyl)-N-((2-(1-(2-methylbenzyl)-1H-pyrrole-2-carboxamido)ethyl)sulfonyl)-1H-indole-2-carboxamide]
Second: Cc1cc(OCCCc2c(C(=O)NS(=O)(=O)CCNC(=O)c3cccn3Cc3ccccc3F)[nH]c3cc(Cl)ccc23)cc(C)c1Cl [Example 248, 6-chloro-3-(3-(4-chloro-3,5-dimethylphenoxy)propyl)-N-((2-(1-(2-fluorobenzyl)-1H-pyrrole-2-carboxamido)ethyl)sulfonyl)-1H-indole-2-carboxamide]
The pKi of the first is lower: 6.30 to 6.52 for the first, 6.52 to 7.00 for the second.

First: CS(=O)(=O)NC(=O)c1[nH]c2cc(Cl)ccc2c1CCCOc1cccc2ccccc12 [Example 52, 6-chloro-N-(methylsulfonyl)-3-(3-(naphthalen-1-yloxy)propyl)-1H-indole-2-carboxamide]
Second: CS(=O)(=O)NC(=O)c1cc2ccccc2n1CCCOc1cccc2ccccc12 [Example 14, N-(methylsulfonyl)-1-(3-(naphthalen-1-yloxy)propyl)-1H-indole-2-carboxamide]
The pKi of the first is higher: 6.52 to 7.00 for the first, 6.30 to 6.52 for the second.

`Cc1cc(OCCCc2c(C(=O)NS(=O)(=O)c3ccc(OCc4ccccc4)cc3)n(C)c3cc(Cl)ccc23)cc(C)c1Cl` [Example 270, N-((4-(benzyloxy)phenyl)sulfonyl)-6-chloro-3-(3-(4-chloro-3,5-dimethylphenoxy)propyl)-1-methyl-1H-indole-2-carboxamide] and `Cc1cc(OCCCc2c(C(=O)NS(=O)(=O)c3ccc(OCc4ccccc4)cc3)[nH]c3cc(Cl)ccc23)cc(C)c1Cl` [Example 224, N-((4-(benzyloxy)phenyl)sulfonyl)-6-chloro-3-(3-(4-chloro-3,5-dimethylphenoxy)propyl)-1H-indole-2-carboxamide] fall in the same range of pKi: 6.30 to 6.52 for the first, 6.30 to 6.52 for the second.

Compared with `Cc1cc(OCCCc2c(C(=O)NS(=O)(=O)c3ccc(OCc4ccccc4)cc3)n(Cc3cccnc3)c3cc(Cl)ccc23)cc(C)c1Cl` [Example 274, N-((4-(benzyloxy)phenyl)sulfonyl)-6-chloro-3-(3-(4-chloro-3,5-dimethylphenoxy)propyl)-1-(pyridin-3-ylmethyl)-1H-indole-2-carboxamide], `Cc1cc(OCCCc2c(C(=O)NS(=O)(=O)c3ccccc3)n(Cc3cccnc3)c3cc(Cl)ccc23)cc(C)c1Cl` [Example 272, 6-chloro-3-(3-(4-chloro-3,5-dimethylphenoxy)propyl)-N-(phenylsulfonyl)-1-(pyridin-3-ylmethyl)-1H-indole-2-carboxamide] is higher in pKi: 5.00 to 6.00 for the first, 6.52 to 7.00 for the second. The second binds more tightly here.

`CCOc1ccc(Oc2ccc(S(=O)(=O)NC(=O)c3[nH]c4ccccc4c3CCCOc3cc(C)c(Cl)c(C)c3)cc2)cc1` [Example 143, 3-(3-(4-chloro-3,5-dimethylphenoxy)propyl)-N-((4-(4-ethoxyphenoxy)phenyl)sulfonyl)-1H-indole-2-carboxamide] and `Cc1cc(OCCCc2c(C(=O)NS(=O)(=O)c3ccncc3)[nH]c3ccccc23)cc(C)c1Cl` [Example 134, 3-(3-(4-chloro-3,5-dimethylphenoxy)propyl)-N-(pyridin-4-ylsulfonyl)-1H-indole-2-carboxamide] fall in the same range of pKi: 6.30 to 6.52 for the first, 6.30 to 6.52 for the second.

First: Cc1cc(OCCCc2c(C(=O)NS(=O)(=O)CCNC(=O)c3c[nH]cn3)[nH]c3ccccc23)cc(C)c1Cl [Example 186, N-((2-(1H-imidazole-4-carboxamido)ethyl)sulfonyl)-3-(3-(4-chloro-3,5-dimethylphenoxy)propyl)-1H-indole-2-carboxamide]
Second: Cc1cc(OCCCc2c(C(=O)NS(=O)(=O)CCNC(=O)c3cccn3Cc3ccccc3)[nH]c3ccccc23)cc(C)c1Cl [Example 200, N-((2-(1-benzyl-1H-pyrrole-2-carboxamido)ethyl)sulfonyl)-3-(3-(4-chloro-3,5-dimethylphenoxy)propyl)-1H-indole-2-carboxamide]
The pKi of the first is lower: 5.00 to 6.00 for the first, 6.52 to 7.00 for the second. The second binds more tightly here.

First: CC(=O)N1CCC(CS(=O)(=O)NC(=O)c2[nH]c3ccccc3c2CCCOc2cc(C)c(Cl)c(C)c2)CC1 [Example 210, N-(((1-acetylpiperidin-4-yl)methyl)sulfonyl)-3-(3-(4-chloro-3,5-dimethylphenoxy)propyl)-1H-indole-2-carboxamide]
Second: Cc1cc(OCCCc2c(C(=O)NS(C)(=O)=O)[nH]c3c(Br)cccc23)cc(C)c1Cl [Example 83, 7-bromo-3-(3-(4-chloro-3,5-dimethylphenoxy)propyl)-N-(methylsulfonyl)-1H-indole-2-carboxamide]
The pKi of the first is lower: 6.00 to 6.30 for the first, 6.30 to 6.52 for the second.

With `Cc1cc(OCCCc2c(C(=O)NS(C)(=O)=O)[nH]c3cccc(C(F)(F)F)c23)ccc1Cl` [Example 80, 3-(3-(4-chloro-3-methylphenoxy)propyl)-N-(methylsulfonyl)-4-(trifluoromethyl)-1H-indole-2-carboxamide] the pKi was 6.52 to 7.00.
